In patent US9844550B2, “Phtalazinone derivatives and manufacturing process thereof” (ILDONG PHARM CO., LTD., priority 2013, dated 2017):

test system: MDA-MB-436 breast cancer cell line; assay: Cell viability assay (MDA-MB-436); format: cell-based; details: Homo sapiens, 144 h; MDA-MB-436 cells, treated 6 days
Procedure: 2. Cell Viability Assay (MDA-MB-436)
Cell viability assay was performed by using MDA-MB-436 cell line to measure cytotoxicity of compounds in the present invention. MDA-MB-436 breast cancer cell line was seeded into 96-well plates at 37° C. under 5% CO2 atmosphere using DMEM/F12 (Gibco) containing 10% FBS (Hyclone). After 24 hr incubation, cells were treated with the invented compounds at various concentrations for 6 days. The medium was changed every 3 day. 6 days later, A fluorescence reagent was used to determine the IC50 values.

SMILES | IC50
CC(NC1CN(C(=O)c2cc(Cc3n[nH]c(=O)c4ccccc34)ccc2F)C1)C1(C)CC1 (stereo not shown) [Compound I-49, 4-(4-fluoro-3-(3-((1-(1-methylcyclopropyl)ethyl)amino)azetidine-1-carbonyl)benzyl)phthalazin-1(2H)-one] | 5 to 50 nM
O=C(c1cc(Cc2n[nH]c(=O)c3ccccc23)ccc1F)N1CC[C@@H](NC2CC2)C1 [Compound I-29, (R)-4-(3-(3-(cyclopropylamino)pyrrolidine-1-carbonyl)-4-fluorobenzyl)phthalazin-1(2H)-one] | 300 to 1000 nM
O=C(c1cc(Cc2n[nH]c(=O)c3ccccc23)ccc1F)N1CC(N2CCC(F)CC2)C1 [Compound I-74, 4-(4-fluoro-3-(3-(4-fluoropiperidin-1-yl)azetidine-1-carbonyl)benzyl)phthalazin-1(2H)-one] | 5 to 50 nM
O=C(c1cc(Cc2n[nH]c(=O)c3ccccc23)ccc1F)N1CC[C@H](Nc2ncccn2)C1 [Compound I-110, (S)-4-(4-fluoro-3-(3-(pyrimidin-2-ylamino)pyrrolidine-1-carbonyl)benzyl)phthalazin-1(2H)-one] | 300 to 1000 nM
N#CC1(NC2CN(C(=O)c3cc(Cc4n[nH]c(=O)c5ccccc45)ccc3F)C2)CCCC1 [Compound I-98, 1-((1-(2-fluoro-5-((4-oxo-3,4-dihydrophthalazin-1-yl)methyl)benzoyl)azetidin-3-yl)amino)cyclopentanecarbonitrile] | 300 to 1000 nM
COCC1(NC2CN(C(=O)c3cc(Cc4n[nH]c(=O)c5ccccc45)ccc3F)C2)CC1 [Compound I-90, 4-(4-fluoro-3-(3-((1-(methoxymethyl)cyclopropyl)amino)azetidine-1-carbonyl)benzyl)phthalazin-1(2H)-one] | 50 to 300 nM
O=C(c1cc(Cc2n[nH]c(=O)c3ccccc23)ccc1F)N1CC(NCCCC(F)(F)F)C1 [Compound I-56, 4-(4-fluoro-3-(3-((4,4,4-trifluorobutyl)amino)azetidine-1-carbonyl)benzyl)phthalazin-1(2H)-one] | 300 to 1000 nM
O=C(c1cc(Cc2n[nH]c(=O)c3ccccc23)ccc1F)N1CC(NCC(F)(F)F)C1 [Compound I-95, 4-(4-fluoro-3-(3-((2,2,2-trifluoroethyl)amino)azetidine-1-carbonyl)benzyl)phthalazin-1(2H)-one] | 50 to 300 nM
N#CC(NC1CN(C(=O)c2cc(Cc3n[nH]c(=O)c4ccccc34)ccc2F)C1)C1CC1 (stereo not shown) [Compound I-103, 2-cyclopropyl-2-((1-(2-fluoro-5-((4-oxo-3,4-dihydrophthalazin-1-yl)methyl)benzoyl)azetidin-3-yl)amino)acetonitrile] | 300 to 1000 nM
CC(C)(CO)CNC1CN(C(=O)c2cc(Cc3n[nH]c(=O)c4ccccc34)ccc2F)C1 [Compound I-93, 4-(4-fluoro-3-(3-((3-hydroxy-2,2-dimethylpropyl)amino)azetidine-1-carbonyl)benzyl)phthalazin-1(2H)-one] | 50 to 300 nM
O=C(c1cc(Cc2n[nH]c(=O)c3ccccc23)ccc1F)N1CC(N2CCC(F)(F)C2)C1 [Compound I-73, 4-(3-(3-(3,3-difluoropyrrolidin-1-yl)azetidine-1-carbonyl)-4-fluorobenzyl)phthalazin-1(2H)-one] | 50 to 300 nM
CN(C)[C@H]1CCN(C(=O)C2CN(C(=O)c3cc(Cc4n[nH]c(=O)c5ccccc45)ccc3F)C2)C1 [Compound I-24, (S)-4-(3-(3-(3-(dimethylamino)pyrrolidine-1-carbonyl)azetidine-1-carbonyl)-4-fluorobenzyl)phthalazin-1(2H)-one] | 300 to 1000 nM
C[C@H](NC1CN(C(=O)c2cc(Cc3n[nH]c(=O)c4ccccc34)ccc2F)C1)C(C)(C)C [Compound I-87, (S)-4-(3-(3-((3,3-dimethylbutan-2-yl)amino)azetidine-1-carbonyl)-4-fluorobenzyl)phthalazin-1(2H)-one] | 300 to 1000 nM
O=C(c1cc(Cc2n[nH]c(=O)c3ccccc23)ccc1F)N1CC(NCC2CCCC2)C1 [Compound I-55, 4-(3-(3-((cyclopentylmethyl)amino)azetidine-1-carbonyl)-4-fluorobenzyl)phthalazin-1(2H)-one] | 5 to 50 nM
O=C(c1cc(Cc2n[nH]c(=O)c3ccccc23)ccc1F)N1CC(N[C@@H]2CCNC2)C1 [Compound I-96, (R)-4-(4-fluoro-3-(3-(pyrrolidin-3-ylamino)azetidine-1-carbonyl)benzyl)phthalazin-1(2H)-one] | 300 to 1000 nM
CC1(NC2CN(C(=O)c3cc(Cc4n[nH]c(=O)c5ccccc45)ccc3F)C2)CC1 [Compound I-85, 4-(4-fluoro-3-(3-((1-methylcyclopropyl)amino)azetidine-1-carbonyl)benzyl)phthalazin-1(2H)-one] | ≤ 5 nM
CC(CNC1CN(C(=O)c2cc(Cc3n[nH]c(=O)c4ccccc34)ccc2F)C1)C(F)(F)F (stereo not shown) [Compound I-50, 4-(4-fluoro-3-(3-((3,3,3-trifluoro-2-methylpropyl)amino)azetidine-1-carbonyl)benzyl)phthalazin-1(2H)-one] | 50 to 300 nM

Further lines, results first:

IC50 | SMILES
300 to 1000 nM | O=C(c1cc(Cc2n[nH]c(=O)c3ccccc23)ccc1F)N1CC[C@@H](Nc2ccc(Cl)nn2)C1 [Compound I-118, (R)-4-(3-(3-((6-chloropyridazin-3-yl)amino)pyrrolidine-1-carbonyl)-4-fluorobenzyl)phthalazin-1(2H)-one]
5 to 50 nM | N#Cc1cnc(N[C@@H]2CCN(C(=O)c3cc(Cc4n[nH]c(=O)c5ccccc45)ccc3F)C2)nc1 [Compound I-126, (R)-2-((1-(2-fluoro-5-((4-oxo-3,4-dihydrophthalazin-1-yl)methyl)benzoyl)pyrrolidin-3-yl)amino)pyrimidine-5-carbonitrile]
50 to 300 nM | O=C(c1cc(Cc2n[nH]c(=O)c3ccccc23)ccc1F)N1CC[C@@H](N2CCCCC2)C1 [Compound I-137, (R)-4-(4-fluoro-3-(3-(piperidin-1-yl)pyrrolidine-1-carbonyl)benzyl)phthalazin-1(2H)-one]
5 to 50 nM | O=C(c1cc(Cc2n[nH]c(=O)c3ccccc23)ccc1F)N1CC(CNCC2CC2)C1 [Compound I-145, 4-(3-(3-(((cyclopropylmethyl)amino)methyl)azetidine-1-carbonyl)-4-fluorobenzyl)phthalazin-1(2H)-one]
5 to 50 nM | O=C(c1cc(Cc2n[nH]c(=O)c3ccccc23)ccc1F)N1CC[C@@H](Nc2ccccn2)C1 [Compound I-128, (R)-4-(4-fluoro-3-(3-(pyridin-2-ylamino)pyrrolidine-1-carbonyl)benzyl)phthalazin-1(2H)-one]
300 to 1000 nM | O=C(c1cc(Cc2n[nH]c(=O)c3ccccc23)ccc1F)N1CC[C@H](Nc2ccc(Cl)nn2)C1 [Compound I-112, (S)-4-(3-(3-((6-chloropyridazin-3-yl)amino)pyrrolidine-1-carbonyl)-4-fluorobenzyl)phthalazin-1(2H)-one]
5 to 50 nM | O=C(c1cc(Cc2n[nH]c(=O)c3ccccc23)ccc1F)N1CC[C@@H](N2CCCC2)C1 [Compound I-136, (R)-4-(3-([1,3′-bipyrrolidine]-1′-carbonyl)-4-fluorobenzyl)phthalazin-1(2H)-one]
300 to 1000 nM | CCN(c1ncccn1)[C@@H]1CCN(C(=O)c2cc(Cc3n[nH]c(=O)c4ccccc34)ccc2F)C1 [Compound I-121, (R)-4-(3-(3-(ethyl(pyrimidin-2-yl)amino)pyrrolidine-1-carbonyl)-4-fluorobenzyl)phthalazin-1(2H)-one]
